Reference: ChEMBL document CHEMBL1152717, “Discovery of mu-opioid selective ligands derived from 1-aminotetralin scaffolds made via metal-catalyzed ring-opening reactions” (Bioorg Med Chem Lett, 2009)

Columns and labels:
[1] = biological target: T1, Mu-type opioid receptor (Homo sapiens, UniProt P35372); assay: Displacement of [125I]FK33824 from human cloned mu opioid receptor
[2] = biological target: Kappa-type opioid receptor (Homo sapiens, UniProt P41145); assay: Displacement of [125I]U69593 from human cloned kappa opioid receptor
[3] = biological target: Delta-type opioid receptor (Homo sapiens, UniProt P41143); assay: Displacement of [125I]deltorphin 2 from human cloned delta opioid receptor
[4] = biological target: T1, Mu-type opioid receptor; details: at 100 µM
Description: Intrinsic activity at human cloned mu opioid receptor at 100 uM by [35S]GTPgammaS binding assay relative to DAMGO

[5] = biological target: T1, Mu-type opioid receptor; assay: Agonist activity at human cloned mu opioid receptor by [35S]GTPgammaS binding assay; assay type: functional

T1 sequence (P35372 whole entry): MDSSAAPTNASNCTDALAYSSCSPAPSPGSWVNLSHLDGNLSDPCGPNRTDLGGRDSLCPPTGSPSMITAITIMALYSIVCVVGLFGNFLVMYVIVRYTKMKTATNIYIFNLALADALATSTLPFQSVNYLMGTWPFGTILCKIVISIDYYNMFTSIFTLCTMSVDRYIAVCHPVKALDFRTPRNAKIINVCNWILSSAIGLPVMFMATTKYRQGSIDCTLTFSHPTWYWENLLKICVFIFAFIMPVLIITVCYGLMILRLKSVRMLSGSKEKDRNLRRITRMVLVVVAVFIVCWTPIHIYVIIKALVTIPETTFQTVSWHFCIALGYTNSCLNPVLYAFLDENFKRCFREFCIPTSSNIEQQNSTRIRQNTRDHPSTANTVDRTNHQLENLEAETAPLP
Delta-type opioid receptor, sequence (P41143 whole entry): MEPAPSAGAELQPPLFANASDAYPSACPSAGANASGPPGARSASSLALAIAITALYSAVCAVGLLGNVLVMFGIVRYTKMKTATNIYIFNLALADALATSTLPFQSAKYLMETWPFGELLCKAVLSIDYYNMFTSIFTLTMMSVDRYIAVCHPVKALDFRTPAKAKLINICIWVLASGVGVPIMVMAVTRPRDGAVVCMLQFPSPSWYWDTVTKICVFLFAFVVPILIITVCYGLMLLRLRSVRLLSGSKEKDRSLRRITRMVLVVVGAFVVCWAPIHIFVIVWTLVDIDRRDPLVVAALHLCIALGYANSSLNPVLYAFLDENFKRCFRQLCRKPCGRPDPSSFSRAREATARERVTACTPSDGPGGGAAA
Kappa-type opioid receptor, sequence (P41145 whole entry): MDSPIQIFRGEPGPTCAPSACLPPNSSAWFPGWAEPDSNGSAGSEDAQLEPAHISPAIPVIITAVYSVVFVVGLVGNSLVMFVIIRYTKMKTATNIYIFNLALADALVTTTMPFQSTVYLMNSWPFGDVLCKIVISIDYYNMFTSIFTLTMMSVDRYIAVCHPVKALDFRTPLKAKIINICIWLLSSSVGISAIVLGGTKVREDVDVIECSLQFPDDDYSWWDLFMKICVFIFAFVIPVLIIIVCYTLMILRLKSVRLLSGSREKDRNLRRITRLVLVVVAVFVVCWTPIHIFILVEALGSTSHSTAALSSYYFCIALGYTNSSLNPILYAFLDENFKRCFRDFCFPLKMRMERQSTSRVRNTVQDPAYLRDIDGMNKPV

COCCN(C(=O)c1sccc1Cl)[C@@H]1c2ccccc2C=C[C@H]1N1CCN(c2ccccc2)CC1 showed an IC50 [1] of 0.058 µM, an IC50 [2] of 1.32 µM and an IC50 [3] of 1.24 µM.

For COCCN(C(=O)c1sccc1Cl)[C@H]1c2ccccc2C=C[C@@H]1N1CCN(c2ccccc2)CC1, the IC50 [1] was 2.8 µM.

COCCN[C@@H]1c2ccccc2CC[C@H]1c1ccsc1 was tested, and the IC50 [2] was 0.707 µM and the IC50 [3] was 3.8 µM.

C[C@@]12CCCCC[C@@H](Cc3ccc(O)cc31)[C@@H]2N gave an Emax [4] of 6%.

For COCCNC1c2ccccc2CCC1c1ccsc1 (racemic), the IC50 [2] was 2.21 µM.

With COCCN(C(=O)COCc1ccccc1)C1c2ccccc2C=CC1N1CCN(c2ccccc2)CC1 (racemic) the EC50 [5] was > 90 µM, the IC50 [1] was 0.211 µM and the IC50 [2] was > 10 µM. It also gave an IC50 [3] of 3.89 µM and an Emax [4] of 10%.

In the case of COCCN(C(=O)Cc1cccc(OC)c1)C1c2ccccc2C=CC1N1CCN(c2ccccc2)CC1 (racemic), the EC50 [5] is reported as > 90 µM, the IC50 [1] is reported as 0.151 µM and the IC50 [2] is reported as > 10 µM. For the same molecule, the IC50 [3] was 1.47 µM and the Emax [4] was 10%.

COCCN(C(=O)Cc1ccc(Cl)cc1)C1c2ccccc2C=CC1N1CCN(c2ccccc2)CC1 (racemic) was tested, and the EC50 [5] was > 90 µM, the IC50 [1] was 0.181 µM and the IC50 [2] was 7.99 µM. For the same molecule, the IC50 [3] was 1.95 µM and the Emax [4] was 0%.

With COCCN(C(=O)c1sccc1Cl)C1c2ccccc2C=CC1N1CCN(c2ccccc2)CC1 (racemic) the EC50 [5] was > 90 µM, the IC50 [1] was 0.1 µM and the IC50 [2] was 7.14 µM. For the same molecule, the IC50 [3] was 2.29 µM and the Emax [4] was 0%.

With COCCN(C(=O)c1ccc(Cl)c(Cl)c1)C1c2ccccc2C=CC1N1CCN(c2ccccc2)CC1 (racemic) the EC50 [5] was > 90 µM, the IC50 [1] was 0.443 µM and the IC50 [2] was > 10 µM. It also gave an IC50 [3] of 3.62 µM and an Emax [4] of 60%.

In the case of COCCN(C(=O)c1cc(C)nn1C)C1c2ccccc2CCC1c1ccsc1 (racemic), the IC50 [1] is reported as 4.86 µM, the IC50 [2] is reported as > 10 µM and the IC50 [3] is reported as 1.27 µM.
